Test results as given in US8173644B2, “3-substituted-[1,2,3]-benzotriazinone compound for enhancing glutamatergic synaptic responses” (Les Laboratoires Servier, priority 2007, dated 2012).

What was measured:
AMPA receptor = experiment: AMPA mediated whole cell currents in cultured cortical neurons (patch clamp, glutamate-induced steady-state current); type: cell-based, Sprague-Dawley rats; conditions: cultured rat cortical neurons, 500 μM glutamate, voltage-clamped at −80 mV; read-out: EC2x value (concentration at which the glutamate induced current is increased by 100%)
Method: Synaptic responses mediated by AMPA receptors are increased according to the method of the invention, using the compound described herein. […] The in vitro assay is described as follows. Cortical cells were prepared from day 18-19 embryonic Sprague-Dawley rats and recorded after 3 days in culture. The extracellular solution (ECS) contained (in mM): NaCl (145), KCl (5.4), HEPES (10), MgCl2 (0.8), CaCl2 (1.8), glucose (10), sucrose (30); pH. 7.4. In order to block the voltage-gated sodium currents, 40 nM TTX was added to the recording solution. […]
The whole-cell current was measured with patch-clamp amplifier (Axopatch 200B), filtered at 2 kHz, digitized at 5 kHz and recorded on a PC with pClamp 8. […] A baseline response for each cell was recorded using a 1 s pulse of 500 μM glutamate dissolved in ECS. Responses to test compound were then determined by application of a 10 s pulse of test compound followed by a 1 s pulse of the same concentration of test compound plus 500 μM glutamate and then 10 s of saline. This pulse sequence was repeated until a stable reading was obtained, or until sufficient data points were measured to allow extrapolation to a calculated maximum change.
The mean value of plateau current between 600 ms to 900 ms after application of glutamate or test compound plus glutamate was calculated and used as the parameter to measure the drug effect. […]

[1] = test system: field EPSP (perforant path / dentate gyrus of the hippocampus); experiment: In vivo physiological testing: field EPSP in dentate gyrus of hippocampus of anesthetized animals; conditions: dose of 5 mg/kg, iv administration
Method: The physiological effects of the invention compound were tested in vivo in anesthetized animals according to the following procedures.
Animals are maintained under anesthesia by phenobarbital administered using a Hamilton syringe pump. Stimulating and recording electrodes are inserted into the perforant path and dentate gyrus of the hippocampus, respectively. Once electrodes are implanted, a stable baseline of evoked responses are elicited using single monophasic pulses (100 μs pulse duration) delivered at 3/min to the stimulating electrode. Field EPSPs are monitored until a stable baseline is achieved (about 20-30 min), after which a solution of test compound in HPCD is injected intraperitoneally and evoked field potentials are recorded. Evoked potentials are recorded for approximately 2 h following drug administration or until the amplitude of the field EPSP returns to baseline. In the latter instance, it is common that an iv administration is also carried out with an appropriate dose of the same test compound.

With `O=C1c2cc3nnn(CCc4cccc(F)c4)c(=O)c3cc2OCN1C1CC1` [8-Cyclopropyl-3-[2-(3-fluorophenyl)ethyl]-7,8-dihydro-3H-[1,3]oxazino[6,5-g][1,2,3]-benzotriazine-4,9-dione] the EC2x (concentration that doubles the glutamate-induced current) (AMPA receptor) was 100 nM and the “increase in the amplitude of the field EPSP” value [1] was 10%.
